Laboratory results as given in the supplement of paper PMC10307832.

Legend:
Assay in all cases: relative viability (nuclei count vs DMSO), 5 days (fraction); higher = more cells survive
TPCA-1 + Luminespib = compound: C1=CC(=CC=C1C2=CC(=C(S2)NC(=O)N)C(=O)N)F [TPCA-1] + CCNC(=O)c1noc(-c2cc(C(C)C)c(O)cc2O)c1-c1ccc(CN2CCOCC2)cc1 [Luminespib] (partner 0.01 µM)
Procedure, shortened: (§1)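 The day after seeding in 1536-well plates, lung cancer cell lines were treated by pin tool with a single drug, or with a fixed anchor-drug dose together with five library-drug doses (not always all listed) in √10 steps. After 5 days, a combined fix-and-stain solution (final 0.05% Triton X-100, 1% formaldehyde, 1 ug/ml Hoechst) was added. Nuclei counted on 4× images gave relative viability as treated counts over vehicle counts, reported as the median of duplicate plates.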

Lestaurtinib + AZD7762 = compound: C[C@]12O[C@H](C[C@]1(O)CO)n1c3ccccc3c3c4c(c5c6ccccc6n2c5c31)CNC4=O [Lestaurtinib] + NC(=O)Nc1cc(-c2cccc(F)c2)sc1C(=O)N[C@H]1CCCNC1 [AZD7762] (partner 0.2 µM)
Procedure, shortened: as §1

[1] = compound: C1/C(=C\C2=CC=CS2)/C(=O)/C(=C/C3=CC=CS3)/C1 + COc1cc2c(Oc3ccc(NC(=O)C4(C(=O)Nc5ccc(F)cc5)CC4)cc3F)ccnc2cc1OCCCN1CCOCC1 [Foretinib] (partner 0.25 µM)
Procedure, shortened: as §1

TPCA-1 + Foretinib = compound: C1=CC(=CC=C1C2=CC(=C(S2)NC(=O)N)C(=O)N)F [TPCA-1] + COc1cc2c(Oc3ccc(NC(=O)C4(C(=O)Nc5ccc(F)cc5)CC4)cc3F)ccnc2cc1OCCCN1CCOCC1 [Foretinib] (partner 0.25 µM)
Procedure, shortened: as §1

Cell Line	relative viability (TPCA-1 + Luminespib; first compound 0.04 µM)	relative viability (TPCA-1 + Luminespib; first compound 0.1265 µM)	relative viability (TPCA-1 + Luminespib; first compound 0.4 µM)	relative viability (TPCA-1 + Luminespib; first compound 1.265 µM)	relative viability (TPCA-1 + Luminespib; first compound 4 µM)	relative viability (Lestaurtinib + AZD7762; first compound 0.005 µM)	relative viability (Lestaurtinib + AZD7762; first compound 0.01581 µM)	relative viability (Lestaurtinib + AZD7762; first compound 0.05 µM)	relative viability (Lestaurtinib + AZD7762; first compound 0.1581 µM)	relative viability (Lestaurtinib + AZD7762; first compound 0.5 µM)	relative viability ([1]; first compound 0.2 µM)	relative viability ([1]; first compound 0.6325 µM)	relative viability ([1]; first compound 2 µM)	relative viability ([1]; first compound 6.325 µM)	relative viability ([1]; first compound 20 µM)	relative viability (TPCA-1 + Foretinib; first compound 0.04 µM)	relative viability (TPCA-1 + Foretinib; first compound 0.1265 µM)	relative viability (TPCA-1 + Foretinib; first compound 0.4 µM)	relative viability (TPCA-1 + Foretinib; first compound 1.265 µM)	relative viability (TPCA-1 + Foretinib; first compound 4 µM)
LOU-NH91	0.346	0.254	0.397	0.255	0.318	0.688	0.754	0.573	0.524	0.378	0.953	0.921	0.919	0.827	0.944	0.984	0.887	0.971	0.97	0.803
LXF-289	0.787	0.649	0.748	0.703	0.596	1.12	1.14	0.801	0.864	0.17	0.982	0.959	0.973	0.994	0.98	0.972	0.966	0.89	0.981	0.692
HARA	0.791	0.754	0.864	0.83	0.382	0.287	0.392	0.282	0.294	0.307	0.875	0.992	0.973	0.832	0.842	0.874	0.907	0.887	0.893	0.681
LU99A	0.34	0.302	0.241	0.349	0.231	0.362	0.348	0.34	0.277	0.158	0.794	0.853	1.01	0.753	0.89	0.917	0.745	0.78	0.636	0.436
201T	1.1	1.07	1.07	1.05	0.967	0.589	0.656	0.53	0.92	0.776	1	1.09	1.25	0.752	1.02	1.12	1.04	1.07	1.09	0.9
HCC-827	0.675	0.496	0.531	0.598	0.201	0.198	0.196	0.219	0.189	0.18	1.04	0.939	1.02	0.96	1	1.14	1.03	1.06	0.873	0.443
NCI-H1666	1.03	0.99	1.08	1.04	1.05	0.753	0.903	0.933	1.01	0.654	0.99	1.01	0.965	0.865	0.958	0.961	0.942	0.931	0.962	0.997
NCI-H1915	0.883	0.804	0.754	0.852	0.581	0.751	0.745	0.655	0.52	0.24	1.09	1.1	1.01	1.07	1.1	1.17	1.06	1.15	1.07	0.872
ChaGo-K-1	0.766	0.689	0.698	0.453	0.302	0.924	0.834	0.775	0.816	0.461	0.912	1.01	0.857	0.797	0.41	0.998	0.894	0.992	0.857	0.612
NCI-H2170	0.968	0.703	0.535	0.681	0.277	0.847	0.784	0.655	0.83	0.241	1.02	0.99	1.02	0.887	1.03	1.08	0.985	0.998	0.986	0.682
NCI-H1975	0.577	0.275	0.2	0.199	0.129	0.806	0.86	0.693	0.745	0.511	0.971	0.979	–	0.771	0.895	0.949	0.919	0.995	0.97	0.532
NCI-H3122	0.106	0.0887	0.0804	0.0762	0.0832	1.05	1.08	1.1	1.32	0.537	1.01	0.934	1	0.81	0.846	1.06	0.914	1.02	0.928	0.909
NCI-H2347	0.694	0.33	0.344	0.453	0.242	0.7	0.83	0.648	0.568	0.466	0.703	1.1	1.08	0.729	1.03	1.03	–	1.16	0.551	0.782
HCC-44	0.958	1.03	1.02	–	0.983	0.949	1.08	1.09	1.14	0.75	–	–	–	–	–	–	–	–	–	–
NCI-H1993	0.694	0.688	0.783	1.29	0.669	0.581	0.553	0.619	0.632	0.47	0.748	0.751	0.75	0.572	0.745	0.798	0.644	0.75	0.663	0.676
NCI-H2405	0.792	0.627	0.709	0.622	0.618	0.746	0.885	0.492	0.662	0.218	1.11	1.03	1.17	0.948	1.12	1.03	1.05	1.11	0.991	1.03
